From US8877815B2, “Substituted carbamoylcycloalkyl acetic acid derivatives as NEP” (Novartis AG, priority 2010, dated 2014) come the findings set out here.

Molecules are shown by their SMILES.

T1 sequence (P08473 whole entry): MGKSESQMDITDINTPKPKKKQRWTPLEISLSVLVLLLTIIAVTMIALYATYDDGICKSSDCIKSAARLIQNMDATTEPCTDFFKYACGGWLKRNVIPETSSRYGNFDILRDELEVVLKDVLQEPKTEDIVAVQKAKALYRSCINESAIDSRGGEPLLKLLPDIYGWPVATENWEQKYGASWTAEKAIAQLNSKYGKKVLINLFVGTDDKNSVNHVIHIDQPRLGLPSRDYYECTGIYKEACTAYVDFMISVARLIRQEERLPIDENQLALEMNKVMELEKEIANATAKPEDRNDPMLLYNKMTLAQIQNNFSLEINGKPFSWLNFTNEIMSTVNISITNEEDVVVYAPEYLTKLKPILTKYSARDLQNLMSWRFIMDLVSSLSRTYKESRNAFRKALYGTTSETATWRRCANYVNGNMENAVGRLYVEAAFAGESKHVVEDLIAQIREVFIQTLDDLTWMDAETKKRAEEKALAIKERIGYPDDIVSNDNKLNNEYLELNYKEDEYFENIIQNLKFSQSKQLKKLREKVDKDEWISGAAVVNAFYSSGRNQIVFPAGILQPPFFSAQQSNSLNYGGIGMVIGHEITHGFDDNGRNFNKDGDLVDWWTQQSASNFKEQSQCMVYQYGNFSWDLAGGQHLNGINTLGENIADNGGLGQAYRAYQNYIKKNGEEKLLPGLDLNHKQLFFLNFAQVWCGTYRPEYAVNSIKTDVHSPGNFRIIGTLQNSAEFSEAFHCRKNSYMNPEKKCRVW

This assay concerns the target T1, recombinant human neutral endopeptidase (NEP, EC 3.4.24.11) (Homo sapiens, UniProt P08473).
T1 construct: made in house; host or cells: insect cells
The experiment in a line: in vitro inhibition of recombinant human neutral endopeptidase (fluorescence lifetime assay). As to conditions: 1 hour pre-incubation, read after 1 hour at room temperature, pH 7.4, substrate Cys(PT14)-Arg-Arg-Leu-Trp-OH 0.7 μM. It counts as biochemical. From the text: The activity of a compound according to the present invention can be assessed by the following in vitro & in vivo methods and/or by the following in vitro & in vivo methods well-described in the art. See A fluorescence lifetime-based assay for protease inhibitor profiling on human kallikrein 7 Doering K, Meder G, Hinnenberger M, Woelcke J, Mayr L M, Hassiepen U Biomol Screen. 2009 January; 14(1):1-9.
In particular, the in vitro inhibition of recombinant human neutral endopeptidase (NEP, EC 3.4.24.11) can be determined as follows:
Recombinant human neutral endopeptidase (expressed in insect cells and purified using standard methods, final concentration 7 pM) is pre-incubated with test compounds at various concentrations for 1 hour at room temperature in 10 mM sodium phosphate buffer at pH 7.4, containing 150 mM NaCl and 0.05% (w/v) CHAPS. The enzymatic reaction is started by the addition of a synthetic peptide substrate Cys(PT14)-Arg-Arg-Leu-Trp-OH to a final concentration of 0.7 μM. Substrate hydrolysis leads to an increase fluorescence lifetime (FLT) of PT14 measured by the means of a FLT reader as described by Doering et al. (2009). The effect of the compound on the enzymatic activity was determined after 1 hour (t=60 min) incubation at room temperature. The IC50 values, corresponding to the inhibitor concentration showing 50% reduction of the FLT values measured in absence of inhibitor, are calculated from the plot of percentage of inhibition vs. inhibitor concentration using non-linear regression analysis software.
The IC50 is the concentration that gives 50% inhibition. `O=C(O)CC1(C(=O)N[C@@H](Cc2ccc(-c3ccccc3)cc2)C(=O)N2CCC[C@H]2C(=O)O)CCCC1` [Example 1-1, (S)-1-((S)-3-(biphenyl-4-yl)-2-(1-(carboxymethyl)cyclopentanecarboxamido)propanoyl)pyrrolidine-2-carboxylicacid]: the concentration for half-maximal inhibition (IC50) amounted to 12 nM.
`O=C(O)CC1(C(=O)N[C@@H](Cc2ccc(-c3ccccc3)cc2)C(=O)O)CCCC1` [Example 1-7]: the IC50 came out at 15 nM.
As for `O=C(O)CC1(C(=O)N[C@@H](Cc2ccc(-c3ccccc3Cl)cc2)c2nnn[nH]2)CCCC1` [Example 8-1], the IC50 is 6 nM.
On to `Cc1cccc(-c2ccc(C[C@H](NC(=O)C3(CC(=O)O)CCCC3)c3nnn[nH]3)cc2)c1` [Example 9-1, (S)-2-(1-(2-(3′-methylbiphenyl-4-yl)-1-(1H-tetrazol-5-yl)ethylcarbamoyl)cyclopentyl)acetic acid], for which the IC50 came out at 40 nM.
Take `COc1cccc(-c2ccc(C[C@H](NC(=O)C3(CC(=O)O)CCCC3)c3nnn[nH]3)cc2)c1` [Example 9-2]: the IC50 is 11 nM.
On to `O=C(O)CC1(C(=O)N[C@@H](Cc2ccc(-c3ccccc3)cc2)c2nnn[nH]2)CCCC1` [Example 31-2, {1-[(S)-2-Biphenyl-4-yl-1-(1H-tetrazol-5-yl)-ethylcarbamoyl]-cyclopentyl}-acetic acid], for which the IC50 worked out at 10 nM.
